Measurements: publication PMC6410080 (Viruses, 2019)
Where a name gives a salt, the structure may show the parent alone. Read-outs that look alike come from different tables or passages of the source.

Legend:
[1] = system: ZIKV; details: AG129 mice; for Infectious virus in the blood at day 7 p.i.: immunofocus assay
[2] = system: SFV; format: cell-based, Semliki Forest virus
[3] = system: DENV-3; experiment: microbe, parasite or virus in culture; format: cell-based, dengue virus; details: Dengue virus, DENV3, Huh-7, read-out: IC50 DENV-3
[4] = in vitro; details: human
[5] = system: H5N1 VLP; experiment: microbe, parasite or virus in culture; format: cell-based, influenza H5N1; details: Influenza A virus, H5N1, HeLa Kyoto, 48 h, read-out: IC50 H5N1
[6] = system: RABV VLP; experiment: microbe, parasite or virus in culture; format: cell-based, rabies virus; details: Lyssavirus rabies, HeLa Kyoto, 24 h, read-out: IC50 RABV
[7] = system: VSV_Blam_VLP fusion; experiment: microbe, parasite or virus in culture; format: cell-based; details: Vesicular stomatitis virus, HeLa Kyoto, read-out: Inhibition of VSV_Blam_VLP fusion compared to DMSO controls
[8] = system: SFV E1 trimer formation; details: HeLa Kyoto, MOI 100; Chloroquine 100 μM
[9] = system: HSV-1; experiment: microbe, parasite or virus in culture; format: cell-based, herpes simplex virus 1; details: 8 h; for IC50: Human alphaherpesvirus 1, Vero, read-out: IC50 HSV (Vero)
[10] = system: SINV; experiment: microbe, parasite or virus in culture; format: cell-based, Sindbis virus; details: Sindbis virus, HeLa Kyoto, read-out: IC50 SINV
[11] = system: DENV-2; experiment: DENV-2 infection assay / secondary screen (E protein staining); format: cell-based, dengue virus serotype 2; details: Dengue virus, DENV2, Huh-7, 24 h; for inhibition at 10 µM: read-out: % inhibition (DENV-2 screen)
[12] = system: EBOV VLP; experiment: microbe, parasite or virus in culture; format: cell-based, Ebola virus; details: Zaire ebolavirus, HeLa Kyoto, 48 h, read-out: IC50 EBOV
[13] = system: DENV-1; experiment: microbe, parasite or virus in culture; format: cell-based, dengue virus; details: Dengue virus, DENV1, Huh-7, read-out: IC50 DENV-1
[14] = system: SFV; experiment: microbe, parasite or virus in culture; format: cell-based, Semliki Forest virus; details: Semliki Forest virus; for IC50: HeLa Kyoto, read-out: IC50 SFV (7 h); for inhibition at 10 µM: M-HeLa, 7 h, read-out: % inhibition (SFV screen)
[15] = system: VSV VLP; experiment: microbe, parasite or virus in culture; format: cell-based, vesicular stomatitis virus; details: Vesicular stomatitis virus, HeLa Kyoto, 24 h, read-out: IC50 VSV
[16] = system: Huh7 cells; details: human
[17] = system: HIV-1; experiment: microbe, parasite or virus in culture; format: cell-based, human immunodeficiency virus type 1; details: for IC50: Human immunodeficiency virus 1, 24 h, read-out: IC50 HIV
[18] = system: HCV; experiment: microbe, parasite or virus in culture; format: cell-based, hepatitis C virus; details: Hepatitis C virus, Huh7.5, read-out: IC50 HCV
[19] = system: YF17D; experiment: organism not typed; format: cell-based, yellow fever 17D; details: Huh-7, read-out: IC50 YF17D
[20] = system: VACV; experiment: microbe, parasite or virus in culture; format: cell-based, vaccinia virus; details: for IC50: Orthopoxvirus vaccinia, HeLa Kyoto, 8 h, read-out: IC50 VACV
[21] = system: ZIKV; experiment: microbe, parasite or virus in culture; format: cell-based, Zika virus; details: Zika virus, Huh-7, read-out: IC50 ZIKV
[22] = system: HeLa Kyoto cells; details: human
[23] = mouse, in vivo; cited from earlier work
[24] = in vitro; details: human; remark: listed apart in the source
[25] = system: DID-labelled SFV hemifusion/fusion; format: cell-based, Semliki Forest virus; details: HeLa Kyoto, 10 μM (20 μM Raloxifene; Bafilomycin 100 nM), 40 min at 37 °C
[26] = system: viruses/VLPs tested; format: cell-based
[27] = system: Renilla luciferase expression (protein synthesis); format: cell-based
[28] = system: Huh7 cells; experiment: MTT assay, Huh7 cells
[29] = in vivo; details: CD1, mouse
[30] = system: SFV internalisation; format: cell-based, Semliki Forest virus
[31] = 10 mg/kg
[32] = read-out: IC50 DENV-2 (7 + 17 h)

For `CC[C@@]1([C@@H]2O[C@@H]([C@H]3O[C@@](O)(CO)[C@H](C)C[C@@H]3C)C[C@@H]2C)CC[C@H]([C@]2(C)CC[C@]3(C[C@H](O)[C@@H](C)[C@@H]([C@@H](C)[C@@H](OC)[C@H](C)C(=O)O)O3)O2)O1` [Monensin, Monensin sodium salt], the “Infectious virus in the blood at day 7 p.i.” value [1] was “cleared infectious virus from the blood by day 7”, the “ZIKV blood titres at day 1 p.i.” value ([1]; qRT-PCR and immunofocus assay, vs untreated) was “significantly reduced blood titres” and the “Activity when added before SFV or 30 and 60 min after internalisation” value (shortened to “Activity”) [2] was “progressive and more dramatic decrease in activity”. The IC50 [3] was ~3.6 µM, the viability at 10 µM [4] was 81% and the IC50 [5] was 0.9 µM. The IC50 [6] was 0.8 µM, the inhibition at 10 µM [7] was > 50% and the “SFV E1 trimer formation” value [8] was “prevented trimer formation”. For the same molecule, the “IC50 HSV (Vero)” value ([9]; virus, Vero cells) was “No inhibition”, the IC50 [10] was 0.4 µM and the inhibition at 10 µM [11] was 100%. For the same molecule, the IC50 [11, 32] was 4.5 µM, the IC50 ([11]; read-out: IC50 DENV-2 (24 h)) was 3.8 µM and the IC50 [12] was 4.5 µM. For the same molecule, the IC50 [13] was 6.2 µM, the IC50 [14] was 1.1 µM and the inhibition at 10 µM [14] was 81.4%. The IC50 [15] was 0.7 µM, the “TC50 DENV-2 (7 + 17 h)” value [16] was >50 µM and the “TC50 DENV-2 (24 h)” value ([16]; 24 h) was >50 µM. The “IC50 HIV” value ([17]; virus, HeLa TZM-bl, 24 h) was “No inhibition”, the IC50 [18] was 2.5 µM and the IC50 [19] was < 0.3 µM. The “IC50 VACV” value [20] was “No inhibition”, the IC50 [21] was 5.5 µM and the “TC50 SFV (7 h)” value ([22]; 7 h) was >50 µM. The “TC50 SFV (7h)” value ([22]; 7 h) was >50000 µM, the Well tolerated dose [23] was “up to 70 mg/kg” and the viability at 10 µM ([24]; % viability (SFV screen)) was 108%.
In the case of `O=C(Nc1ccc([N+](=O)[O-])cc1Cl)c1cc(Cl)ccc1O` [Niclosamide], the “Inhibition of DID-SFV de-quenching (in words)” value [25] is reported as “Strong inhibition of de-quenching”, the “Activity” value [2] is reported as “minor but reproducible decrease in activity” and the “Time of Addition” value [2] is reported as “Before and after fusion”. The IC50 [3] was 1.6 µM, the “Viruses Inhibited” value [26] was “All tested” and the “Decrease of Renilla signal (protein synthesis)” value [27] was “more than 50%”. It also gave a viability at 10 µM [4] of 36.9%, an IC50 [5] of 1.4 µM and an IC50 [6] of 1.3 µM. The inhibition at 10 µM [7] was > 50%, the “SFV E1 trimer formation” value [8] was “No trimers were observed” and the IC50 [9] was 1.3 µM. The IC50 [10] was 2.8 µM, the inhibition at 10 µM [11] was 75.4% and the IC50 [11, 32] was 1.1 µM. For the same molecule, the IC50 ([11]; read-out: IC50 DENV-2 (24 h)) was 0.4 µM, the IC50 [12] was 2.9 µM and the IC50 [13] was 1.5 µM. It also gave an IC50 [14] of 3 µM, an inhibition at 10 µM [14] of 73.1% and an IC50 [15] of 3.5 µM. For the same molecule, the “TC50 DENV-2 (7 + 17 h)” value ([28]; Huh7, compounds 7 h then compound-free media 17 h) was >50 µM, the “TC50 DENV-2 (24 h)” value ([28]; Huh7, compounds 24 h) was 12.8 µM and the Tmax ([29]; ip, 10 mg/kg) was 15 min. For the same molecule, the IC50 [17] was 3.3 µM, the IC50 [18] was 0.2 µM and the IC50 [19] was < 0.3 µM. For the same molecule, the IC50 [20] was 3 µM, the IC50 [21] was ~0.7 µM and the “TC50 SFV (7 h)” value [22] was >50 µM. The “TC50 SFV (7h)” value [22] was >50000 µM, the “Internalised SFV E1/E2 after subtilisin treatment” value [30] was “Loss of E1/E2” and the “Kinetics of SFV internalisation (subtilisin resistance)” value [30] was “remained lower compared to untreated control”. The Peak blood concentration (CD1, mouse, in vivo) was 40 µM, the “Blood level after 2 h” value (mouse, in vivo) was “undetectable” and the viability at 10 µM ([24]; % viability (SFV screen)) was 104%.
In the case of `CC(C)(C)c1cc(C=C(C#N)C#N)cc(C(C)(C)C)c1O` [Tyrphostin A9], the “ZIKV blood titres at days 1 and 3” value ([1]; Tyrphostin A9 1 mg/kg PO, vs untreated) is reported as “only minor and non significant differences”, the “Infectious virus in the blood at day 7 p.i.” value [1] is reported as “infectious virus was detected in only two of six mice” and the “ZIKV-infected CD14+CD11c+ dendritic cells in blood, day 7 p.i.” value ([1]; without statistical significance) is reported as “fewer infected CD14+CD11c+ dendritic cells”. The “Reason for suspending administration” value ([1]; Tyrphostin A9 1 mg/kg PO, after the fourth administration) was “toxicity and weight loss”, the “Inhibition of DID-SFV de-quenching (in words)” value [25] was “Strong inhibition of de-quenching” and the “Activity” value [2] was “minor but reproducible decrease in activity”. For the same molecule, the “Time of Addition” value [2] was “Before and after fusion”, the Toxicity [31] was “toxicity” and the IC50 [3] was 1.2 µM. The “Viruses Inhibited” value [26] was “All tested”, the “Decrease of Renilla signal (protein synthesis)” value [27] was “more than 50%” and the viability at 24 h, 10 µM [4] was 50.5%. For the same molecule, the IC50 [5] was < 0.5 µM, the IC50 [6] was 1.4 µM and the inhibition at 10 µM [7] was > 50%. The “SFV E1 trimer formation” value [8] was “No trimers were observed”, the IC50 [9] was 1.5 µM and the IC50 [10] was ~0.8 µM. The inhibition at 10 µM [11] was 99.7%, the IC50 [11, 32] was 1.2 µM and the IC50 ([11]; read-out: IC50 DENV-2 (24 h)) was 0.4 µM. For the same molecule, the IC50 [12] was 3.2 µM, the IC50 [13] was 1.4 µM and the IC50 [14] was 2.9 µM. For the same molecule, the inhibition at 10 µM [14] was 73.5%, the IC50 [15] was 4.1 µM and the “TC50 DENV-2 (7 + 17 h)” value [16] was >50 µM. The “TC50 DENV-2 (24 h)” value [16] was 28.5 µM, the concentration at 2 h ([29]; 1 mg/kg) was 20 nM and the concentration at 8 h ([29]; 1 mg/kg) was 760 nM. For the same molecule, the Tmax ([29]; po, 1 mg/kg) was 60 min, the IC50 [17] was 1.1 µM and the IC50 [18] was < 0.3 µM. For the same molecule, the IC50 [19] was < 0.3 µM, the IC50 [20] was 3.4 µM and the IC50 [21] was < 0.3 µM. For the same molecule, the “Internalised SFV E1/E2 after subtilisin treatment” value [30] was “Loss of E1/E2”, the Blood peak (Tyrphostin A9 1 mg/kg IP) was 5 µM and the Peak blood concentration (Tyrphostin A9 1 mg/kg PO, CD1 mice) was 1.52 µM. For the same molecule, the viability at 10 µM [24] was 105%.
